Experimental data published in patent publication US9670545B2, “Methods and kits for treating and classifying individuals at risk of or suffering from TRAP1 change-of-function” (Courtagen Life Sciences, Inc., priority 2013, dated 2017).

Tested on: patient with I253V in the TRAP1 ATPase domain
Test: Case Report 1: clinical response of a patient with I253V in the TRAP1 ATPase domain to supplementation
Assay type: in vivo, human
Conditions: single patient
Experimental: A person was referred to the inventors because of a failure-to-thrive and hypoglycemia. Additional problems included constipation, temperature instability, tachycardia, delayed gastric emptying (confirmed by Scintiscan), almost-daily pain (headaches, abdominal pain, leg cramps), chronic fatigue (sleeping up to 22 hours a day), anemia (requiring multiple transfusions), repetitive episodes of right arm dyskinesia (2 minutes each, twice a week), and neurodevelopmental issues (gross motor delay, auditory processing problem, and memory defects, but cognitive delay is only 6 months). […] Episodic dyskinesia later resolved with L-arginine supplementation. However, gastrointestinal dysfunction worsened, necessitating a gastrostomy tube, followed by a jejunostomy tube. […] Pertinent results of an extensive work-up include normal brain MR, normal video-EEG, severe free carnitine deficiency (<4 micromolar, normal >19; total carnitine 17), trace elevations on urine organic acids, respiratory alkalosis (hyperventilation), and hypoglycemia (even while receiving adequate jejunal feeds or parental nutrition). […] After finding the I253V in the TRAP1 ATPase domain, antioxidant therapy was intensified, and results are pending.

N=C(N)NCCC[C@H](N)C(=O)O [L-arginine]
Episodic dyskinesia (repetitive episodes of right arm dyskinesia): resolved
